Reference: patent publication US12404250B2, “PARP inhibitors for treating cancer and asthma” (Oregon Health & Science University, priority 2018, dated 2025)

Tests used:
GFP-PARP11 = target: T1, GFP-PARP11 (Homo sapiens, UniProt Q9NR21); assay: GFP-PARP11 localization at the nuclear envelope in HeLa cells; format: cell-based; conditions: HeLa cells transfected with GFP-PARP11, 1 μM for 1 or 18 h
T1 construct: expressed in transfected cells; host or cells: HeLa
T1 sequence (Q9NR21 1-338): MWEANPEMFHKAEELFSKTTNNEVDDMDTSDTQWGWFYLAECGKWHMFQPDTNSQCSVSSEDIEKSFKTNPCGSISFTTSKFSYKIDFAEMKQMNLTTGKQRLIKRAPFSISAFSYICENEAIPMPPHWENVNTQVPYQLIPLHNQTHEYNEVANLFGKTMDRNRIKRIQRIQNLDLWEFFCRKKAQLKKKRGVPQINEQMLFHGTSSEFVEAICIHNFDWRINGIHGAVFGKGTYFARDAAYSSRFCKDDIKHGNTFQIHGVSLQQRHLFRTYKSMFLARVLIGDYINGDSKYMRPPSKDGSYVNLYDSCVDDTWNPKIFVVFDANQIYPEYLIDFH
Procedure: FIGS. 5A and 5B depict dissociation from the nuclear envelope in HeLa cells following ITK7 (Example 7) treatment. […] HeLa cells were transfected with GFP-PARP11 grown on glass cover-slips. After ITK7 (1 μM) treatment for 1 or 18 h cells were fixed and mounted using mounting medium containing DAPI. Images were taken on the Olympus FLUOVIEW™ 2000 microscope using an 60x/NA 1.40 oil objective (scale bar 10 μm).
HeLa cells were transfected with GFP-PARP11 grown on glass cover-slips. After ITK7 (1 μM) treatment for 1 or 18 h cells were fixed and mounted using mounting medium containing DAPI. Images were taken on the Olympus FLUOVIEW™ 2000 microscope using an 60x/NA 1.40 oil objective (scale bar 10 μm).

PARP16 = target: T2, PARP16 (Homo sapiens, UniProt Q8N5Y8); assay: In vitro IC50, immunoprecipitated GFP-PARP16 auto-MARylation; format: biochemical
T2 construct: expressed in transfected cells; host or cells: HEK 293T
T2 sequence (Q8N5Y8 1-322): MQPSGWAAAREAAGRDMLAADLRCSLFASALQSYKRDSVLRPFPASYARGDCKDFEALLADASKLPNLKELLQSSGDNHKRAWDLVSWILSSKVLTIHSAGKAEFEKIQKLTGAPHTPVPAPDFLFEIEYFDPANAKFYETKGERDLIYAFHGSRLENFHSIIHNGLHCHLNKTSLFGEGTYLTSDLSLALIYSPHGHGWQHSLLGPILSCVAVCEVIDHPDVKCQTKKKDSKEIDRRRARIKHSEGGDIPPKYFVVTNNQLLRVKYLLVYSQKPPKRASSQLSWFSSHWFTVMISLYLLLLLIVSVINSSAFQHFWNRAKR
Procedure: Auto-MARylation was analyzed by Western blot with an ADP-ribose (ADPr) binding reagent (uncropped blots shown below).

PARP1/2 = target: T3, PARP1/2 (Homo sapiens, UniProt P09874); assay: H2O2-stimulated PARP1/2 activity in HEK 293T cells (Western blot); format: cell-based; conditions: H2O2 500 μM for 15 min, Western blot with ADPr binding reagent
T3 construct: expressed in transfected cells; host or cells: HEK 293T
Procedure: Lysates were prepared and PAR/MARylation was analyzed by Western blot with an ADP-ribose (ADPr) binding reagent. Blot was also probed with antibodies for GFP and actin. The band of interest represents auto-PARylated GFP-PARP1. […] Lysates were prepared and PAR/MARylation was analyzed by Western blot with an ADP-ribose (ADPr) binding reagent. Blot was also probed with antibodies for GFP and actin.
Lysates were prepared and PAR/MARylation was analyzed by Western blot with an ADP-ribose (ADPr) binding reagent. Blot was also probed with antibodies for GFP and actin. The band of interest represents auto-PARylated GFP-PARP1.

PARP 3 = target: T4, PARP 3 (Homo sapiens, UniProt Q9Y6F1); assay: In vitro IC50, PARP3; format: biochemical; conditions: SEM from a minimum of three dose-response experiments
T4 sequence (Q9Y6F1 1-533): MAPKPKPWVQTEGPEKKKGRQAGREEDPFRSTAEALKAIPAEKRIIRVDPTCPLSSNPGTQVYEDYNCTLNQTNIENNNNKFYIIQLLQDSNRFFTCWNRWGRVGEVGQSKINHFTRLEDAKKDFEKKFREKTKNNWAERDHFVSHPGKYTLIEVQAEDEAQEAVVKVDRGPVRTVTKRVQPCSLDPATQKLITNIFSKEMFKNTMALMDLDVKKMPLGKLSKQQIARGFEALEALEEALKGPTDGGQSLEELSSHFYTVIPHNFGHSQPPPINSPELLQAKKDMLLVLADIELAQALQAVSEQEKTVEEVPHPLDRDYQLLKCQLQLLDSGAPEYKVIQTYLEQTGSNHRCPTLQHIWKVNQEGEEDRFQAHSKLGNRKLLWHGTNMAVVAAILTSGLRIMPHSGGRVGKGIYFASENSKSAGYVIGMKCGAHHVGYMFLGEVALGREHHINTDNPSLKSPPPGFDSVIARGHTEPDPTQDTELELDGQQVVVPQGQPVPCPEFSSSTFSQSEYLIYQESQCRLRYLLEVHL

T3 sequence (P09874 2-1014): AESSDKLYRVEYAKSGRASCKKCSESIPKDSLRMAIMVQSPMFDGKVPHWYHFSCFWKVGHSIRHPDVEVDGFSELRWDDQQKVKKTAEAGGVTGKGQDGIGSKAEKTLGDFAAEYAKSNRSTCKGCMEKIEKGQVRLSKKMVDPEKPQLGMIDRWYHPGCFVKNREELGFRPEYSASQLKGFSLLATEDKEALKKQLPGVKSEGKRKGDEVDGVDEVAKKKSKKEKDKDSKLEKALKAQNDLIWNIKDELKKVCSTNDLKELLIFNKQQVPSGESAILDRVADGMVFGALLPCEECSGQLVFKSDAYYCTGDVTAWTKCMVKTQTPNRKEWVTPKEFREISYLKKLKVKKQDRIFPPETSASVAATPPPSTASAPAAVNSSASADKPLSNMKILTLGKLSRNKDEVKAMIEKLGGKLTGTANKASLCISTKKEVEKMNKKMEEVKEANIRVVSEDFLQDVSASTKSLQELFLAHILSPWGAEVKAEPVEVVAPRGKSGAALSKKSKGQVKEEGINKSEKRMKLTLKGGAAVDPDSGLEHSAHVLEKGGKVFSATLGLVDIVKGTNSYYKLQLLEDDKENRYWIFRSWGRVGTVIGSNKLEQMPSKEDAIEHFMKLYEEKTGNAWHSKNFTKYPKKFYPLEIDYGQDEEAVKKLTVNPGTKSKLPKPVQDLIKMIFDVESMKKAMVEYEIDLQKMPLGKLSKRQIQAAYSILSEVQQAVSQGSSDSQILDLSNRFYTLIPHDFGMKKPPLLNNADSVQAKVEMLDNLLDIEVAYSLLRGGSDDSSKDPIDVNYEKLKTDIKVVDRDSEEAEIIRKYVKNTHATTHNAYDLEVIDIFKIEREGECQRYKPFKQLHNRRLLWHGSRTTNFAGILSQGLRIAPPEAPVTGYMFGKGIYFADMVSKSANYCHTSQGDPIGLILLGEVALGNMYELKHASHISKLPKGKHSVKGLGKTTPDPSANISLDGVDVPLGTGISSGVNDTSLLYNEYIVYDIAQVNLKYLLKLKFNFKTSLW

Q: For `CC#Cc1ccc2c(=O)[nH]c(CSc3ncccn3)nc2c1C` [ITK7, 8-methyl-7-(prop-1-yn-1-yl)-2-((pyrimidin-2-ylthio)methyl)quinazolin-4(3H)-one], which “Dissociation of GFP-PARP11 from the nuclear envelope” value (GFP-PARP11) is on record?
A: The value was “causes GFP-PARP11 to dissociate from the nuclear envelope”.

Q: What about the IC50 (PARP16) of the same compound?
A: The IC50 was greater than 3 µM.

Q: And the “Inhibition of H2O2-mediated PARP1 PARylation (PARP½ activity) in cells” value (PARP1/2)?
A: Its value is “has no effect”.

Q: And the IC50 (PARP 3)?
A: The IC50 was greater than 30 µM.
